For the first test, the system named is collagen and epinephrine induced thrombosis in mice. The experiment in a line: Effect on mouse thrombosis: collagen and adrenaline induced pulmonary thromboembolism. To be noted: 30 μM/kg orally 60 min prior to collagen + adrenaline challenge. It is filed as in vivo. As for the experimental part: Pulmonary thromboembolism was induced by following a method of Diminno and Silver^(1). Test compounds (30 μM/Kg) or vehicle were administered orally 60 min prior to the thrombotic challenge. A mixture of collagen (150 μg/ml) and adrenaline (50 μg/mL) was administered by the rapid intravenous injection into the tail vein to induce hind limb paralysis or death. A group of 10 animals were used to evaluate the effect of test compound, while 5 mice were used to assess effect of a standard drug, aspirin and a group of vehicle treated (n=5) mice was also used each experiment.
% Protection was expressed as: […]
Ptest is the number of animals paralyzed/dead in the test compound-treated group, and Pcontrol is the number of animals paralyzed/dead in vehicle treated group.
As to `COC(=O)C1Cc2c([nH]c3ccccc23)CN1S(=O)(=O)c1cccc2c(N(C)C)cccc12` (racemic) [g, 2-[dansylsulfonyl]-1,2,3,4,-tetrahydro-9H-pyrido[3,4-b]indole-3-carboxylic acid ester], the “Antithrombotic activity (AT) (% protection)” value is given as 20%. Same read-out and setting: for `NC(=O)C1Cc2c([nH]c3ccccc23)CN1S(=O)(=O)c1cccc([N+](=O)[O-])c1` (stereo not drawn) [u] the value was 45%; for `COC(=O)C1Cc2c([nH]c3ccccc23)CN1S(=O)(=O)c1ccccc1[N+](=O)[O-]` (racemic) [c, 2[2, nitrobenzenesulfonyl]-1,2,3,4,-tetrahydro-9H-pyrido[3,4-b]indole-3-carboxylic acid ester], 0%.

On to `NC(=O)C1Cc2c([nH]c3ccccc23)CN1S(=O)(=O)c1ccc(F)cc1` (stereo not drawn) [s, 2[-4-fluorobenzenesulfonyl]-1,2,3,4,-tetrahydro-9H-pyrido[3,4-b]indole-3-carboxylic acid amide], for which the “Antithrombotic activity (AT) (% protection)” value is 60%. Still for that read-out and setting: next, `CS(=O)(=O)N1Cc2[nH]c3ccccc3c2CC1C(N)=O` (stereo not drawn) [t, 2[methanesulfonyl]-1,2,3,4,-tetrahydro-9H-pyrido[3,4-b]indole-3-carboxylic acid amide]: 30%; `NC(=O)C1Cc2c([nH]c3ccccc23)CN1S(=O)(=O)c1cccc2ccccc12` (stereo not drawn) [q, 2[-1-naphthylsulfonyl]-1,2,3,4,-tetrahydro-9H-pyrido[3,4-b]indole-3-carboxylic acid amide]: 20%. On the same count and under the same terms, next, `COC(=O)C1Cc2c([nH]c3ccccc23)CN1S(=O)(=O)c1ccc(F)cc1` (racemic) [i, 2[4-fluorobenzenesulfonyl]-1,2,3,4,-tetrahydro-9H-pyrido[3,4-b]indole-3-carboxylic acid ester]: 0%; `NC(=O)C1Cc2c([nH]c3ccccc23)CN1S(=O)(=O)c1cccc2cccnc12` (stereo not drawn) [r, 2[8-quinolinesulfonyl]-1,2,3,4,-tetrahydro-9H-pyrido[3,4-b]indole-3-carboxylic acid amide]: 30%. The same measure, in the same setting: next, `COC(=O)C1Cc2c([nH]c3ccccc23)CN1S(=O)(=O)c1c(C)cc(C)cc1C` (racemic) [b, 2[2,4,6, trimethylbenzenesulfonyl]-1,2,3,4,-tetrahydro-9H-pyrido[3,4-b]indole-3-carboxylic acid ester]: 20%; `COC(=O)C1Cc2c([nH]c3ccccc23)CN1S(=O)(=O)c1cccc2ccccc12` (racemic) [d, 2[1-naphthylsulfonyl]-1,2,3,4,-tetrahydro-9H-pyrido[3,4-b]indole-3-carboxylic acid ester]: 20%; `COC(=O)C1Cc2c([nH]c3ccccc23)CN1S(=O)(=O)c1c(C(C)C)cc(C(C)C)cc1C(C)C` (racemic) [h, 2[2,4,6 triisopropylbenzenesulfonyl]-1,2,3,4,-tetrahydro-9H-pyrido[3,4-b]indole-3-carboxylic acid ester]: 0%. For the compound `Cc1cc(C)c(S(=O)(=O)N2Cc3[nH]c4ccccc4c3CC2C(N)=O)c(C)c1` (stereo not drawn) [v], the “Antithrombotic activity (AT) (% protection)” value is 30%. On the same count and under the same terms, for `COC(=O)C1Cc2c([nH]c3ccccc23)CN1S(C)(=O)=O` (racemic) [k, 2[methylsulfonyl]-1,2,3,4,-tetrahydro-9H-pyrido[3,4-b]indole-3-carboxylic acid ester] the value was 50%; for `NC(=O)C1Cc2c([nH]c3ccccc23)CN1S(=O)(=O)c1cc(Cl)ccc1Cl` (stereo not drawn) [o, 2[-2,5-dichlorobenzenesulfonyl]-1,2,3,4,-tetrahydro-9H-pyrido[3,4-b]indole-3-carboxylic acid amide], 40%. The same measure, in the same setting: for `COC(=O)C1Cc2c([nH]c3ccccc23)CN1S(=O)(=O)c1cccc2cccnc12` (racemic) [f, 2[8-quinolinesulfonyl]-1,2,3,4,-tetrahydro-9H-pyrido[3,4-b]indole-3-carboxylic acid ester] the value was 20%; for `COC(=O)C1Cc2c([nH]c3ccccc23)CN1S(=O)(=O)c1ccc(OC)cc1` (racemic) [e], 0%.

Staying with this test, now noted: 10 mg/kg (indomethacin).
With `COc1ccc2c(c1)c(CC(=O)O)c(C)n2C(=O)c1ccc(Cl)cc1` [Indomethacin, reference compound], the “Antithrombotic activity (AT) (% protection)” value was 55 ± 15 (n = 20) %.

Another test concerns stasis induced thrombosis in LPS treated rabbits. The test can be described thus: Rabbit venous thrombosis model (stasis induced thrombosis in LPS treated rabbits). It is filed as in vivo, New Zealand white strain rabbits. To be noted: evaluated at 10 μM/Kg and 30 μM/kg dose. As to the method:
[formula] 1.4 Evaluation of coagulation parameters: Blood was collected by cardiac puncture from ether-anaesthetized rat using a syringe containing 3.2% tri-sodium citrate (9:1, v/v). Plasma was obtained by centrifugation of citrated blood at 2500×g for 15 min at 20° C. Stock solutions of the test compounds were prepared freshly in DMSO and were diluted in DMSO. Thrombin time (TT), prothrombin time (PT) and activated partial thromboplastin time (aPTT) were evaluated according to manufacturer's instructions supplied with kits (Stago, France) and measured by Coagulometer (Stago, France)^(4). In each set of experiment effect of DMSO on these parameters was also assessed and was used to calculate change in TT, PT or aPTT. 1.5 Rabbit venous thrombosis model: Experiments were performed on New Zealand white strain rabbits (2-3 kg) either sex. Escherichia coli LPS strain 1055:B5 (Sigma Chemicals, USA) was injected intravenously via ear vein (1 μg/kg)^(5,6). Jugular veins on both sides were exposed and dissected free from surrounding tissue. Two loose surer were placed 1.5 cm apart and all collateral veins were ligated. Four hours after E. coli endotoxin injection (animal is watched for any signs of hypersensitivity reaction during this period), stasis was established and maintained for 45 min by tightening the two sutures. Ligated segments were removed and opened longitudinally and the thrombus was carefully removed and weighed. Heparin sodium (Beparine from beef intestinal mucosa ≧140 USP units/mg; Biological E. Limited, India) was given in doses of (0.5, 0.25, 0.1 mg/kg i.v., via ear vein) 5 min before stasis. 1.6 Effect of compound (i) on human platelet aggregation in vitro: Platelet aggregation study was done on human platelets following isolation of PRP from the human blood as described above (1.3). Aggregation was induced by collagen (10 μg/ml, 5 μg/ml), ADP (10 μM) and thrombin (0.5 U/ml). 2. Results: Effect of test compounds is indicated in the following table (1) against collagen and epinephrine induced thrombosis in mice, which is a primary screening model to detect antithrombotic efficacy of the test agents. At the same dose these compounds were also evaluated for their effect on the bleeding time in mouse (Table 1).
Effect on venous thrombosis model in rabbit: The selected compounds were evaluated at 10 μM/Kg and 30 μM/kg dose for their efficacy against stasis induced thrombosis in LPS treated rabbits. […] Ex vivo effect of selective compounds on rat platelet aggregation: Blood was collected in sodium citrate to obtain PRP and evaluate the ex vivo effect of selective compounds ((i), (ii), (iii) at 30 μM/kg administered by the ip route) against ADP, collagen, phorbol myristate ester (PMA) calcium ionophore (A23187), or thrombin induced aggregation. It was observed that all these compounds were consistent against collagen-induced platelet aggregation (Table 3). (iii) inhibited ADP (10 μM), collagen (10 μg/ml), PMA (1.5 μM), and thrombin (0.64 U/ml) induced platelet aggregation while no inhibition was found against calcium ionophore A23187 (2.5 μg/ml) induced platelet aggregation. […] Effect on clotting parameters: The selected compounds were also tested in vitro for their effect on thrombin time (TT), prothrombin time (PT) and activated partial thromboplastin time (aPTT) at 100 μg/ml and 200 μg/ml in vitro (Table 4). The test compounds at 100 μg/ml had no significant effect of on these parameters. Some effect was though seen on PT at 200 μg/ml concentration, but the concentration seems to be quite high.
Values are Mean±; Compound (i); n=2, Compound (ii); n=4, Compound (iii), n=4 [n is no. of observations in 2 or more animals at 10 μM/Kg or 30 μM/Kg p.o. administered 2 h prior to the stasis] or vehicle control [n=10 observations in five animals]. In heparin treated group n=6 observations for each dose in nine animals.
In the case of `COC(=O)C1Cc2c([nH]c3ccccc23)CN1S(=O)(=O)c1ccc(C)cc1` (racemic) [n, 2[4-methylbenzenesulfonyl]-1,2,3,4,-tetrahydro-9H-pyrido[3,4-b]indole-3-carboxylic acid ester], the “inhibition of thrombus formation (in words)” value is recorded as “inhibited thrombus formations only at 30 μM/Kg”.

(Values after patent US7601838B2, “2-Alkyl/aryl sulphonyl-1,2,3,4-tetrahydro-9H-pyrido (3,4-b) indole-3-carboxylic acid esters/amides useful as antithrombotic agents” (Council of Scientific and Industrial Research, priority 2004, dated 2009).)
